Molecular target: β-adrenergic receptor (β-AR; subtype not determined)

Kd: 0.0324 ± 0.0011 nM
SMILES: CC(C)(C)NC[C@H](O)COc1cccc2[nH]c(C#N)c(I)c12 [125I-CYP, (-)3-[125I]iodocyanopindolol]
